From patent US12005265B2, “Compositions and methods to modulate cell activity” (THE ROCKEFELLER UNIVERSITY, priority 2014, dated 2024)

Legend:
[1] = system: N38 cells; assay: Multiphoton chloride imaging (MQAE) of stably transfected N38 cells; type: cell-based, mouse
Experimental: Stably transfected cells were washed with Krebs-HEPES buffer 3 times then loaded with MQAE (N-(Ethoxycarbonylmethyl)-6-Methoxyquinolinium Bromide, 5 mM, Invitrogen) for 60 min at room temperature. […] Imaging was performed using LSM 510 NLO inverted multiphoton and confocal system (Zeiss) using a 40× objective with two photon excitation at 750 nm. […] Imaging was repeated in the presence of Ruthenium red (100 μM) (2 occasions for each condition). Images were analyzed using Image J software.

[2] = system: HEK or N38 cells; assay: Whole cell voltage clamp recordings of cultured HEK and N38 cells; type: cell-based; conditions: 2APB 200 μM, −60 mV
Experimental: Neurons expressing GFP were visualized using epifluorescence on an upright Zeiss Axioskop 2FS Plus microscope equipped with a Hamamatsu CCD camera. External solution contained (in mM): 140 NaCl, 2.8KCl, 2CaC2, 1 MgCl2, 1HEPES, 10 glucose, pH 7.4.
I-V relationships were obtained by measuring current responses to increasing 5 mV steps in the presence of 200 μM 2APB. Cells were held at −60 mV. Magnetic activation was applied by bringing a permanent magnet within 500 microns of the recorded cell for 5 seconds with a micromanipulator. Recordings were acquired with an Axopatch 200B amplifier, filtered to 2 kHz and digitized at 10 kHz (pClamp software, Molecular Devices). Data were analyzed using IGOR Pro (Wavemetrics) and NeuroMatic. (neuromatic.thinkrandom.com). Series resistance was monitored and not compensated for. If there was more than a 20% change in series resistance the recording was excluded.

[3] = system: αGFP-TRPV1; conditions: HEK cells transfected with αGFP-TRPV1; 2APB; vs 0.85-fold
[4] = system: N38 cells; assay: Calcium imaging of stably transfected N38 cells under RF or magnet; type: cell-based, mouse; conditions: N38 cells expressing αGFP-TRPV1/GFP-ferritin
Experimental: TRPV1 is a non-selective cation channel with relatively high permeability to divalent cations, particularly calcium (Ca2+>Mg2+>Na+K+Cs+)^55. […] Cells were washed again in PBS then incubated for 15-30 min in sulfinpyrazone in PBS. […] Images were acquired every 3 seconds for 3 minutes. […] Imaging was repeated in the presence of Ruthenium red (100 μM) (2 occasions for each condition). Images were analyzed using Image J software.
For studies to examine the effects of increasing RF or magnet field strength, to assess the effects of short RF treatment (10s) on calcium responses and to examine the kinetics of the calcium response, cells were loaded with FluoForte 20 μM (Enzo Life Sciences, Lorrach, Germany) in the presence of Pluronic F-127 (0.02% vol/vol) and sulfinpyrazone 500 μM. […] Imaging was performed as above with images acquired every second for 1 minute. Cells were imaged without treatment (4 occasions), before and during RF treatment at 31, 27 and 23 mT (4 occasions each), before and during application of a neodymium magnet at 280 or 130 mT (magnet 2 mm or 5 mm from the cells respectively, 4 occasions each) and before, during and after 10 second treatment with RF (31 mT) (4 occasions). Images were analyzed using Image J software.

[5] = system: N38 cells; assay: Effect of RF on pCREB and c-fos in N38 cells; type: cell-based, mouse; conditions: N38 cells expressing αGFP-TRPV1/GFP-ferritin
Experimental: Effect of RF or magnet on pCREB and cFos: 24 h prior to the study, cells were placed in 1% FBS medium at 32° C. to ensure minimal activation of TRPV1 and calcium dependent pathways. On the day of study, cells were incubated in 500 μl of calcium imaging buffer at room temperature (control) or in a RF field (31 mT) at room temperature. For magnet treatment, cells were treated with a static magnetic field (280 mT) for 5 seconds every 2 minutes for 1 hour at room temperature. After 60 min, the cells were placed on ice, the supernatant removed and cells lysed with RIPA buffer (40 μl, pCREB) or lysis buffer (100 μl Agilent Absolutely RNA microprep kit) and frozen at −80° C. until assay or RNA purification. Each study was repeated on 3 occasions each with 4 replicates. Control studies with N38 cells alone were performed on 2 occasions with 4 replicates.
Protein was isolated by lysis in RIPA buffer and centrifugation at 16000 rpm, 4° C. for 5 min before addition of 4× Laemelli buffer. Samples were denatured for 5 mins at 95° C. and frozen at −20° C. before assay. Samples (15 ul) were run on a 4-15% gel then transferred to PVDF membrane. Membranes were blocked (3% dried milk in TBST buffer) for 1 hour at room temperature then incubated in primary antibody (Phospho-CREB (Ser133) (87G3) Rabbit mAb (1:1000) or beta Actin Rabbit Ab (1:1000), Cell Signaling) in TBST overnight at 4 degrees. […]

[6] = N38 cells stably transfected with αGFP-TRPV1^Mutant/GFP-ferritin

| Structure (SMILES) | level of intracellular chloride measured by MQAE quenching [1, 6] | current induced by TRPV1 agonist ([2]; HEK cell expressing αGFP-TRPV1/GFP-ferritin) | current induced by TRPV1 agonist ([2]; HEK cell expressing αGFP-TRPV1^Mutant/GFP-ferritin) | change in Fluo-4 fluorescence (intracellular calcium) [3] | effect on magnet-induced increase of intracellular chloride ([1]; N38 cells expressing αGFP-TRPV1^Mutant/GFP-ferritin) | effect on 2APB-induced increase of intracellular chloride [1, 6] | effect on RF-induced rise of intracellular calcium [4] | effect on magnet-induced increase of intracellular calcium [4] | effect on RF-induced increase of pCREB and c-fos [5] |
| --- | --- | --- | --- | --- | --- | --- | --- | --- | --- |
| NCCOB(c1ccccc1)c1ccccc1 [2APB, 2-aminoethoxydiphenyl borate] | significantly increased | inward current | outward current | 2.0 fold |  |  |  |  |  |
| N.N.N.N.N.N.N.N.N.N.N.N.N.N.[Cl-].[Cl-].[Cl-].[Cl-].[Cl-].[Cl-].[O-2].[O-2].[Ru+3].[Ru+3].[Ru+4] [ruthenium red] |  |  |  |  | blocked | blocked | blocked | blocked | blocked |
